ChEMBL document CHEMBL1201862, “PubChem BioAssay data set” (2004)
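Protocol summary: plate cells (96-well), add compound at 5 concentrations, incubate 48 h, interpolate endpoints linearly. GI50 is the concentration that inhibits growth by half.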 The source made the active and inactive calls. No stated cut-off is given here; in the data, active = GI50 up to about 1.1 µM and inactive = higher.

Legend:
Experiment in all cases: NCI anticancer screen, dose series, 48 h
NCI-H460 = tested on: NCI-H460
UO-31 = tested on: UO-31
HOP-62 = tested on: HOP-62
OVCAR-3 = tested on: OVCAR-3
SK-OV-3 = tested on: SK-OV-3
HOP-92 = tested on: HOP-92
CAKI-1 = tested on: CAKI-1
HCC 2998 = tested on: HCC 2998
OVCAR-5 = tested on: OVCAR-5
OVCAR-8 = tested on: OVCAR-8
M14 = tested on: M14
MOLT-4 = tested on: MOLT-4
786-0 = tested on: 786-0
SK-MEL-2 = tested on: SK-MEL-2
HL-60 = tested on: HL-60
NCI/ADR-RES = tested on: NCI/ADR-RES
SF-539 = tested on: SF-539
SNB-75 = tested on: SNB-75
SK-MEL-28 = tested on: SK-MEL-28
RXF 393 = tested on: RXF 393

SMILES	GI50 (NCI-H460)	GI50 (UO-31)	GI50 (HOP-62)	GI50 (OVCAR-3)	GI50 (SK-OV-3)	GI50 (HOP-92)	GI50 (CAKI-1)	GI50 (HCC 2998)	GI50 (OVCAR-5)	GI50 (OVCAR-8)	GI50 (M14)	GI50 (MOLT-4)	GI50 (786-0)	GI50 (SK-MEL-2)	GI50 (HL-60)	GI50 (NCI/ADR-RES)	GI50 (SF-539)	GI50 (SNB-75)	GI50 (SK-MEL-28)	GI50 (RXF 393)
CCN1CCN=c2c3cc(OC)ccc3n3cnc4ccc1c2c43	0.0948 µM (active)	0.147 µM (active)	0.193 µM (active)	0.226 µM (active)	0.348 µM (active)	0.776 µM (active)	0.34 µM (active)	0.244 µM (active)	0.316 µM (active)	0.0863 µM (active)	0.245 µM (active)	0.0879 µM (active)	0.0759 µM (active)	0.238 µM (active)	0.206 µM (active)	0.145 µM (active)	0.123 µM (active)	0.456 µM (active)	0.506 µM (active)	0.33 µM (active)
COc1ccc(/C=C2/CCS(=O)(=O)c3ccc(C)cc3C2=O)cc1OC	7.74 µM (inactive)	7.48 µM (inactive)	28.9 µM (inactive)	28.1 µM (inactive)	21.6 µM (inactive)	2.36 µM (inactive)	17.2 µM (inactive)	6.47 µM (inactive)	27.5 µM (inactive)	12.3 µM (inactive)	17.2 µM (inactive)	12.1 µM (inactive)	11.4 µM (inactive)	20 µM (inactive)	10.4 µM (inactive)	11.8 µM (inactive)	14.6 µM (inactive)	12 µM (inactive)	17.2 µM (inactive)	12.9 µM (inactive)
CCOC(=O)N1CCN(Cc2cc(=O)n3ccc(C)cc3n2)CC1	> 100 µM (inactive)	> 100 µM (inactive)	> 100 µM (inactive)	> 100 µM (inactive)	> 100 µM (inactive)	> 100 µM (inactive)	> 100 µM (inactive)	> 100 µM (inactive)	> 100 µM (inactive)	> 100 µM (inactive)	> 100 µM (inactive)	> 100 µM (inactive)	> 100 µM (inactive)	> 100 µM (inactive)	> 100 µM (inactive)	> 100 µM (inactive)	> 100 µM (inactive)	> 100 µM (inactive)	> 100 µM (inactive)	> 100 µM (inactive)
CCOC(=O)CSc1nc(N)c2c(-c3ccccc3)c3c(nc2n1)CCCC3	> 100 µM (inactive)	25.1 µM (inactive)	> 100 µM (inactive)	> 100 µM (inactive)	> 100 µM (inactive)	> 100 µM (inactive)	> 100 µM (inactive)	> 100 µM (inactive)	> 100 µM (inactive)	> 100 µM (inactive)	> 100 µM (inactive)	> 100 µM (inactive)	> 100 µM (inactive)	> 100 µM (inactive)	> 100 µM (inactive)	> 100 µM (inactive)	> 100 µM (inactive)	98.6 µM (inactive)	> 100 µM (inactive)	> 100 µM (inactive)
O=C1C=C(OCCCCl)C(=O)c2c(O)ccc(O)c21	1.21 µM (inactive)	1.18 µM (inactive)	1.42 µM (inactive)	0.505 µM (active)	2.24 µM (inactive)	1.42 µM (inactive)	1.85 µM (inactive)	1.91 µM (inactive)	1.43 µM (inactive)	2.07 µM (inactive)	0.188 µM (active)	2.11 µM (inactive)	1.56 µM (inactive)	1.02 µM (active)	0.792 µM (active)	2.65 µM (inactive)	1.38 µM (inactive)	1.4 µM (inactive)	0.843 µM (active)	1.69 µM (inactive)
O=[N+]([O-])C1=Cc2c(O)ccc(O)c2C2c3ccccc3NC12 (stereo not given)	12.8 µM (inactive)	5.33 µM (inactive)	11.3 µM (inactive)	5.81 µM (inactive)	29 µM (inactive)	7.28 µM (inactive)	4.36 µM (inactive)	7.52 µM (inactive)	16.1 µM (inactive)	5.82 µM (inactive)	13.2 µM (inactive)	3.18 µM (inactive)	12.1 µM (inactive)	16.9 µM (inactive)	5.85 µM (inactive)	7.43 µM (inactive)	30.9 µM (inactive)	22.4 µM (inactive)	18.5 µM (inactive)	13.2 µM (inactive)
CC(=O)O[C@H]1CCC2[C@@H]3CC[C@]4(C)CC(=O)C=C[C@]4(C)C3CC[C@@]21C (stereo not given in full)	17.5 µM (inactive)	6.3 µM (inactive)	50.6 µM (inactive)	17.5 µM (inactive)	65.8 µM (inactive)	48.2 µM (inactive)	83.4 µM (inactive)	45.6 µM (inactive)	> 80.5 µM (inactive)	17.3 µM (inactive)	19.2 µM (inactive)	23.2 µM (inactive)	34.4 µM (inactive)	20.8 µM (inactive)	20.4 µM (inactive)	22 µM (inactive)	17.7 µM (inactive)	46 µM (inactive)	18.5 µM (inactive)	24.2 µM (inactive)
CCN(CC)c1c(C(C)(C)C)c(=O)n2ccsc2c1OC(C)=O	16.5 µM (inactive)	17.9 µM (inactive)	13.3 µM (inactive)	17.1 µM (inactive)	18.2 µM (inactive)	17.4 µM (inactive)	18.6 µM (inactive)	17.4 µM (inactive)	15.8 µM (inactive)	15 µM (inactive)	17.3 µM (inactive)	17.8 µM (inactive)	19.9 µM (inactive)	17.1 µM (inactive)	29.4 µM (inactive)	13 µM (inactive)	19.1 µM (inactive)	15 µM (inactive)	17.1 µM (inactive)	16.9 µM (inactive)
